# Experiments:
# ScoDasR (DasR^Sco) = biological target: T1, ScoDasR (DasR^Sco) (Streptomyces coelicolor, UniProt Q9K492); assay: isothermal titration calorimetry; type: binding
# T1 construct: full-length, His-tagged, expressed in E. coli BL21(DE3), Ni-NTA purified; GntR family, predominantly dimer
# T1 sequence (Q9K492 1-254): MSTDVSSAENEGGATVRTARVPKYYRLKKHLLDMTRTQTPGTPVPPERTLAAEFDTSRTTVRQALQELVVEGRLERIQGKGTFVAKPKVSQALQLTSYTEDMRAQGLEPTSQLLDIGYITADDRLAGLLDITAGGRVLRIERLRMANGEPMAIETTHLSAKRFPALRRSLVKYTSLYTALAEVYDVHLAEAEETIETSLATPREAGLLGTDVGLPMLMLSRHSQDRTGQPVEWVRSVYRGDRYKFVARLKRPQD
# [1] = biological target: T2, DasR (His-DasR) of S. erythraea (Saccharopolyspora erythraea, UniProt A4F723); assay: isothermal titration calorimetry; type: binding
# T2 construct: gene SACE_0500; full-length, His-tagged, expressed in E. coli BL21(DE3), Ni-NTA purified; predominantly dimer (c-di-AMP promotes dimerization)
# T2 sequence (A4F723 1-251): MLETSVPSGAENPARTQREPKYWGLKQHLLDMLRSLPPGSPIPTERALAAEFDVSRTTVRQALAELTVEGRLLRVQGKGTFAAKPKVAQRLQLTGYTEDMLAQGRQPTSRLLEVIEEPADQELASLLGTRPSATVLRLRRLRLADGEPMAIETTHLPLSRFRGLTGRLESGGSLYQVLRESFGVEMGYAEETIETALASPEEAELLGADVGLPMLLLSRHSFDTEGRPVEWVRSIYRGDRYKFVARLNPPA
# [2] = tested on: DasR (Saccharopolyspora erythraea); assay: BLI; details: EMSA: 10 mM Tris-HCl pH 8.0, 25 mM MgCl2, 50 mM NaCl, 1 mM DTT, 1 mM EDTA, 0.01% NP-40, 50 ug/mL poly(dIdC), 10% glycerol, 18 C, 30 min, BLI: 10 mM HEPES pH …
Compound,Kd (ScoDasR (DasR^Sco)),Kd [1],Kd ([2]; 100 uM c-di-AMP),Kd ([2]; no c-di-AMP)
Nc1ncnc2c1ncn2[C@@H]1O[C@@H]2COP(=O)(O)O[C@H]3[C@@H](O)[C@H](n4cnc5c(N)ncnc54)O[C@@H]3COP(=O)(O)O[C@H]2[C@H]1O [c-di-AMP],23 µM,26.8 µM,–,–
nagA promoter,–,–,0.44 µM,19 µM
